Data from US20230381774A1, “MICROFLUDIC LAB-ON-CHIP DEVICE, MATRIX, SMALL MOLECULES AND THREE-DIMENSIONAL SPHEROIDS FOR CELL REPROGRAMMING” (The Regents of the University of California, priority 2022, published 2023).

Experiments:
Assay type in all cases: cell-based, mouse
[1] = system: promoter or enhancer regions of neuronal and mesenchymal genes; experiment: ATAC-seq chromatin accessibility; conditions: 10 μM blebbistatin or 5 μM PF573228, 2 hours
Experimental: A total of 1,000,000 fibroblasts treated with vehicle control (DMSO), 10 μM blebbistatin or 5 μM PF573228 were collected after 2 hours and stored at −80° C. prior to sample processing. ATAC-seq was performed as described previously^47. In brief, frozen cells were thawed and washed once with PBS and then resuspended in 500 μL of cold PBS. The cell number was assessed by Cellometer Auto 2000 (Nexcelom Bioscience, Massachusetts, USA). 100,000 cells were then added to ATAC lysis buffer and centrifuged at 500 g in a pre-chilled centrifuge for 5 minutes. Supernatant was removed and the nuclei were resuspended in 50 μL of tagmentation reaction mix by pipetting up and down. The reactions were incubated at 37° C. for 30 minutes in a thermomixer with shaking at 1,000 r.p.m., and then cleaned up using the MiniElute reaction clean up kit (Qiagen). Tagmented DNA was amplified with barcoded primers. Library quality and quantity were assessed with Qubit 2.0 DNA HS Assay (ThermoFisher), Tapestation High Sensitivity D1000 Assay (Agilent Technologies), and QuantStudio® 5 System (Applied Biosystems). Equimolar pooling of libraries was performed based on QC values and sequenced on an Illumina® NovaSeq (Illumina, California, USA) with a read length configuration of 150 PE for [100]M PE reads (50M in each direction) per sample.
FASTQ files were trimmed with Trim Galore and cutadapt^48. Pair-ended reads were then aligned to the mouse reference genome (mm10) with Bowtie2^49. Mitochondrial reads and PCR duplicates were removed using SAMtools^50 and Picard (http://broadinstitute.github.io/picard/), respectively. Peaks were called over input using MACS3^51, and only peaks outside the ENCODE blacklist region were kept. All peaks from all samples were merged and featureCount^52 was used to count the mapped reads for each sample.

[2] = system: ERK; experiment: Downstream ERK signaling (Western blot)
Experimental: Fibroblasts were lysed and collected in Laemmli buffer ([…] Tris-HCl, 10% glycerol, 2% SDS, 5% 2-mercaptoethanol, 0.002% bromophenol blue) containing RIPA buffer (50 mM Tris-HCl, 150 mM NaCl, 1% Triton-X-100, 0.1% SDS, 10 mM NaF, 0.5% sodium deoxycholate) along with protease inhibitors (PMSF, Na3VO4 and Leupeptin) on ice. Protein lysates were centrifuged to pellet cell debris, and the supernatant was collected and used in further analysis. Protein samples were run using SDS-PAGE and transferred to polyvinylidene fluoride (PVDF) membranes. Membranes were blocked in 3% nonfat milk and incubated with primary antibodies overnight. Primary antibodies include pFAK, FAK, αSMA, Calponin, pERK, ERK, and GAPDH. Membranes were washed with Tris-Buffered Saline+0.05% Tween-20 and incubated with HRP-conjugated IgG secondary antibodies (Santa Cruz Biotechnologies) for one hour. Protein bands were visualized using Western Lightning™ Plus—Enhanced Chemiluminscence Substrate (Perkin Elmer Life & Analytical Sciences) and imaged on a ChemiDoc XRS system (Bio-Rad).

[3] = system: H3K4-specific histone methyltransferase (HMT); experiment: H3K4 HMT activity assay on nuclear extracts of treated fibroblasts; conditions: 10 μM blebbistatin or 5 μM PF573228, 2 hours, vs DMSO
Experimental: Nuclear protein extractions were isolated from 5×10^5 fibroblasts treated with vehicle control (DMSO), 10 μM blebbistatin or 5 μM PF573228 for 2 hours using a nuclear extraction kit (EpiGentek, OP-0002), in accordance with the manufacturer's instructions. HAT, HDAC, H3K4 HMT, H3K4 HDM and DNMT activity were measured using the HAT activity/inhibition assay (EpiGentek, P-4003-048), HDAC activity/inhibition assay (EpiGentek, P-4034-096), Histone methyltransferase (H3K4 specific) activity/inhibition assay (EpiGentek, P-3002-1), Histone Demethylase (H3K4 specific) activity/inhibition assay (EpiGentek, P-3074-48), and DNMT activity/inhibition assay (EpiGentek, P-3009-048), respectively. Per the manufacturer's instructions, 20 μg of nuclear extract was added into the assay wells and incubated at 37° C. for 90 minutes. After adding the color developer solution, the absorbance was measured using a plate reader (Infinite […], 30050303) at 450 nm for all the assays with the exception of the Histone Demethylase (H3K4 specific) activity/inhibition assay where we measured the fluorescence using a fluorescence microplate reader at 530 EX/590 EM nm.

[4] = system: Ascl1-transduced fibroblasts; experiment: Single-factor (Ascl1-only) iN reprogramming; conditions: 10 μM, relative to control
Experimental: After transduction, mouse fibroblasts were seeded onto multi-well tissue culture-treated polystyrene dishes (Falcon) coated with laminin (0.1 mg/ml, Corning) at 4,000 cells per cm^2. Twenty-four hours after seeding, the medium was replaced to MEF medium containing doxycycline (2 μg/ml, Sigma). The following day (i.e., day 1) the medium was changed to N3 medium (DMEM/F12 [GIBCO]+N2 supplement [Invitrogen]+B27 supplement [Invitrogen]+1% penicillin/streptomycin [Gibco]+ doxycycline [2 μg/ml, Sigma]) and the cultures were maintained in this medium for the duration of the experiments. For Ascl1-only reprogramming, N3 medium was further supplemented with BDNF (5 ng/ml, R&D systems) and GDNF (5 ng/ml, R&D systems) after day 7. […] After culturing for the desired length (14 days for BAM and 21 days for Ascl1 only), the induced neuronal (iN) cells were analyzed and the reprogramming efficiency was determined.
The reprogramming efficiency was determined by as the percentage of TUBB3^+ iN cells in each condition normalized to the number of cells plated at 24 hours post-seeding. […]

[5] = system: fibroblasts; experiment: Cell morphology, actin and focal adhesion immunostaining; conditions: 24 hours
Experimental: For immunostaining, cells were fixed with 4% paraformaldehyde (Electron Microscopy Sciences), permeabilized with 0.5% Triton-X-100 (Sigma), and blocked with 5% donkey serum (Jackson Immunoresearch) in phosphate buffered saline (PBS). For actin-cytoskeleton staining, samples were incubated with fluorescein isothiocyanate-conjugated phalloidin (Invitrogen) for 1 hour. Primary antibodies were incubated for 1 hour at room temperature or overnight at 4° C., followed by 1-hour incubation with Alexa 488 and/or Alexa 546-labeled secondary antibodies (Molecular Probes). Nuclei were stained with 4,6-diamino-2-phenylindole (DAPI) (Invitrogen).

| SMILES | chromatin accessibility of mesenchymal genes [1] | chromatin accessibility of neuronal genes (Ascl1, Brn2, Myt1l, Tubb3) [1] | downstream ERK signaling [2] | H3K4-specific HMT activity [3] | iN cell generation from Ascl1-transduced fibroblasts [4] | actin fibers [5] | paxillin punctate [5] | cell morphology and spreading ([5]; 10 μM) |
| --- | --- | --- | --- | --- | --- | --- | --- | --- |
| CS(=O)(=O)c1cccc(CNc2nc(Nc3ccc4c(c3)CCC(=O)N4)ncc2C(F)(F)F)c1 [PF573228] | slightly decrease the accessibility of mesenchymal genes | could increase the accessibility at the promoter or enhancer regions of neuronal genes | modulated downstream ERK signaling | differences |  |  |  |  |
| Cc1ccc2c(c1)C(=O)C1(O)CCN(c3ccccc3)C1=N2 (centres unmarked) [blebbistatin] | slightly decreased the accessibility at the promoters or enhancer regions of some mesenchymal genes | could increase the accessibility at the promoter or enhancer regions of neuronal genes |  | increased | could generate significantly more iN cells from Ascl1-transduced fibroblasts relative to control | fewer intact actin fibers | fewer positive paxillin punctate | induced dramatic changes in cell morphology and reduced cell spreading |
